# Experimental data from patent US11987586B1 (TAKEDA PHARMACEUTICAL COMPANY LIMITED, priority 2022, dated 2024).
# Molecular target: T1, human OX2 receptor (Homo sapiens, UniProt O43614)
# T1 construct: expressed in transfected cells
# T1 sequence (O43614 1-444): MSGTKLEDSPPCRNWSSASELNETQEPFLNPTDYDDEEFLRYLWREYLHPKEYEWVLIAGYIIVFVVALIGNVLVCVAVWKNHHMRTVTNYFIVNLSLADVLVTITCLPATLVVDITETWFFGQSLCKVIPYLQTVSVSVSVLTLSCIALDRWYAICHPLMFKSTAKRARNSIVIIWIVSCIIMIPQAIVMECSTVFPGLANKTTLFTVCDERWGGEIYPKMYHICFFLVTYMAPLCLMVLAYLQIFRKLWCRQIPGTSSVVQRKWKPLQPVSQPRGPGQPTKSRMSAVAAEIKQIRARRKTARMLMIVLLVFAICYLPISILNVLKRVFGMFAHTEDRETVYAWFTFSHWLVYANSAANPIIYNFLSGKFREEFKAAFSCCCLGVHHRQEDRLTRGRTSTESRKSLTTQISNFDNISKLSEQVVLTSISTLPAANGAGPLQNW
# Experiment: Measurement of orexin type 2 receptor agonist activity (calcium fluorescence, Fluo-4, FDSS)
# Assay type: cell-based
# Settings: 3 uM test compound; CHO cells expressing human OX2 receptor; DMSO = 0%, 10 nM orexin A (human) = 100%
# Summary of the method: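 Agonist activity (%) was normalised to the response to 10 nM final human orexin A (100%) and to the DMSO vehicle (0%). The response was measured as the Fluo-4 calcium signal, read kinetically over 1 min 40 s after compound addition to Fluo-4/probenecid-loaded stable CHO-K1 clones expressing human OX2 (aa 1-444).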
row,"OX2R agonist activity (3 uM, %) [%]",SMILES
1,111,"O=C1N(c2noc3ccc(F)c(-c4c(F)cc(F)cc4F)c23)CC[C@H]2N1C[C@@H](NS(=O)(=O)C1CC1)C2(F)F [Example 234, N-{(4aR,6R)-5,5-difluoro-2-[5-fluoro-4-(2,4,6-trifluorophenyl)-1,2-benzoxazol-3-yl]-1-oxooctahydropyrrolo[1,2-c]pyrimidin-6-yl}cyclopropanesulfonamide]"
2,113,"CCS(=O)(=O)N[C@@H]1CN2C(=O)N(c3noc4nccc(-c5c(F)cc(F)cc5F)c34)CC[C@@H]2C1(F)F [Example 235, N-{(4aR,6R)-5,5-difluoro-1-oxo-2-[4-(2,4,6-trifluorophenyl)[1,2]oxazolo[5,4-b]pyridin-3-yl]octahydropyrrolo[1,2-c]pyrimidin-6-yl}ethanesulfonamide]"
3,108,"O=C1N(c2noc3cc(F)cc(-c4c(F)cc(F)cc4F)c23)CC[C@H]2N1C[C@@H](NS(=O)(=O)CF)C2(F)F [Example 236, N-{(4aR,6R)-5,5-difluoro-2-[6-fluoro-4-(2,4,6-trifluorophenyl)-1,2-benzoxazol-3-yl]-1-oxooctahydropyrrolo[1,2-c]pyrimidin-6-yl}-1-fluoromethanesulfonamide]"
4,110,"CS(=O)(=O)N[C@@H]1CN2C(=O)N(c3noc4nccc(-c5c(F)cc(F)cc5F)c34)CC[C@@H]2C1(F)F [Example 237, N-{(4aR,6R)-5,5-difluoro-1-oxo-2-[4-(2,4,6-trifluorophenyl)[1,2]oxazolo[5,4-b]pyridin-3-yl]octahydropyrrolo[1,2-c]pyrimidin-6-yl}methanesulfonamide]"
5,106,"COCc1cc2onc(N3CC[C@H]4N(C[C@@H](NS(C)(=O)=O)C4(F)F)C3=O)c2c(-c2c(F)cccc2F)c1F [Example 238, N-{(4aR,6R)-2-[4-(2,6-difluorophenyl)-5-fluoro-6-(methoxymethyl)-1,2-benzoxazol-3-yl]-5,5-difluoro-1-oxooctahydropyrrolo[1,2-c]pyrimidin-6-yl}methanesulfonamide]"
6,95,"CCS(=O)(=O)N[C@@H]1Cn2c(cn(-c3noc4cc(COC)c(F)c(-c5c(F)cc(F)cc5F)c34)c2=O)C1(F)F [Example 239, N-{(6R)-7,7-difluoro-2-[5-fluoro-6-(methoxymethyl)-4-(2,4,6-trifluorophenyl)-1,2-benzoxazol-3-yl]-3-oxo-2,5,6,7-tetrahydro-3H-pyrrolo[1,2-c]imidazol-6-yl}ethanesulfonamide]"
7,100,"CS(=O)(=O)N[C@@H]1CN2C(=O)N(c3noc4ccc(F)c(-c5c(F)cc(F)cc5F)c34)CC[C@@H]2C1(F)F [Example 241, N-{(4aR,6R)-5,5-difluoro-2-[5-fluoro-4-(2,4,6-trifluorophenyl)-1,2-benzoxazol-3-yl]-1-oxooctahydropyrrolo[1,2-c]pyrimidin-6-yl}methanesulfonamide]"
8,105,"O=C1N(c2noc3cccc(-c4c(F)cc(F)cc4F)c23)CC[C@H]2N1C[C@@H](NS(=O)(=O)C1CC1)C2(F)F [Example 242, N-{(4aR,6R)-5,5-Difluoro-1-oxo-2-[4-(2,4,6-trifluorophenyl)-1,2-benzoxazol-3-yl]octahydropyrrolo[1,2-c]pyrimidin-6-yl}cyclopropanesulfonamide]"
9,89,"COCc1cc2onc(-n3cc4n(c3=O)C[C@@H](NS(C)(=O)=O)C4(F)F)c2c(-c2c(F)cc(F)cc2F)c1F [Example 244, N-{(6R)-7,7-difluoro-2-[5-fluoro-6-(methoxymethyl)-4-(2,4,6-trifluorophenyl)-1,2-benzoxazol-3-yl]-3-oxo-2,5,6,7-tetrahydro-3H-pyrrolo[1,2-c]imidazol-6-yl}methanesulfonamide]"
10,101,"CCS(=O)(=O)N[C@@H]1CN2C(=O)N(c3noc4cc(F)cc(-c5c(F)cccc5F)c34)CC[C@@H]2C1(F)F [Example 247, N-{(4aR,6R)-2-[4-(2,6-difluorophenyl)-6-fluoro-1,2-benzoxazol-3-yl]-5,5-difluoro-1-oxooctahydropyrrolo[1,2-c]pyrimidin-6-yl}ethanesulfonamide]"
11,107,"Cc1cc2onc(N3CC[C@H]4N(C[C@@H](NS(C)(=O)=O)C4(F)F)C3=O)c2c(-c2c(F)cc(F)cc2F)n1 [Example 248, N-{(4aR,6R)-5,5-difluoro-2-[6-methyl-4-(2,4,6-trifluorophenyl)[1,2]oxazolo[4,5-c]pyridin-3-yl]-1-oxooctahydropyrrolo[1,2-c]pyrimidin-6-yl}methanesulfonamide]"
12,102,"CCOc1cc(-c2c(F)cc(F)cc2F)c2c(N3CC[C@H]4N(C[C@@H](NS(=O)(=O)C5CC5)C4(F)F)C3=O)noc2c1 [Example 249, N-{(4aR,6R)-2-[6-ethoxy-4-(2,4,6-trifluorophenyl)-1,2-benzoxazol-3-yl]-5,5-difluoro-1-oxooctahydropyrrolo[1,2-c]pyrimidin-6-yl}cyclopropanesulfonamide]"
13,99,"COc1cc(-c2c(F)cc(F)cc2F)c2c(-n3cc4n(c3=O)C[C@@H](NS(C)(=O)=O)C4(F)F)noc2n1 [Example 250, N-{(6R)-7,7-difluoro-2-[6-methoxy-4-(2,4,6-trifluorophenyl)[1,2]oxazolo[5,4-b]pyridin-3-yl]-3-oxo-2,5,6,7-tetrahydro-3H-pyrrolo[1,2-c]imidazol-6-yl}methanesulfonamide]"
14,109,"CS(=O)(=O)N[C@H]1C[C@H]2CCN(c3noc4cc(C(F)(F)F)cc(-c5c(F)cccc5F)c34)C(=O)N2C1 [Example 251, N-{(4aR,6S)-2-[4-(2,6-difluorophenyl)-6-(trifluoromethyl)-1,2-benzoxazol-3-yl]-1-oxooctahydropyrrolo[1,2-c]pyrimidin-6-yl}methanesulfonamide]"
15,96,"CS(=O)(=O)N[C@@H]1CN2C(=O)N(c3noc4cc(F)c(F)c(-c5c(F)cccc5F)c34)CC[C@@H]2C1(F)F [Example 252, N-{(4aR,6R)-2-[4-(2,6-difluorophenyl)-5,6-difluoro-1,2-benzoxazol-3-yl]-5,5-difluoro-1-oxooctahydropyrrolo[1,2-c]pyrimidin-6-yl}methanesulfonamide]"
16,101,"CS(=O)(=O)N[C@H]1C[C@H]2CCN(c3noc4cc(F)cc(-c5c(F)cccc5F)c34)C(=O)N2C1 [Example 253, N-{(4aR,6S)-2-[4-(2,6-difluorophenyl)-6-fluoro-1,2-benzoxazol-3-yl]-1-oxooctahydropyrrolo[1,2-c]pyrimidin-6-yl}methanesulfonamide]"
17,95,"CCS(=O)(=O)N[C@@H]1CN2C(=O)N(c3noc4cc(F)cc(-c5ncc(F)cc5F)c34)CC[C@@H]2C1(F)F [Example 254, N-{(4aR,6R)-2-[4-(3,5-difluoropyridin-2-yl)-6-fluoro-1,2-benzoxazol-3-yl]-5,5-difluoro-1-oxooctahydropyrrolo[1,2-c]pyrimidin-6-yl}ethanesulfonamide]"
18,107,"CCS(=O)(=O)N[C@@H]1CN2C(=O)N(c3noc4cc(OC(F)F)cc(-c5c(F)cccc5F)c34)CC[C@@H]2C1(F)F [Example 255, N-{(4aR,6R)-2-[6-(difluoromethoxy)-4-(2,6-difluorophenyl)-1,2-benzoxazol-3-yl]-5,5-difluoro-1-oxooctahydropyrrolo[1,2-c]pyrimidin-6-yl}ethanesulfonamide]"
19,103,"O=C1N(c2noc3cc(OC(F)F)cc(-c4c(F)cccc4F)c23)CC[C@H]2N1C[C@@H](NS(=O)(=O)C1CC1)C2(F)F [Example 256, N-{(4aR,6R)-2-[6-(difluoromethoxy)-4-(2,6-difluorophenyl)-1,2-benzoxazol-3-yl]-5,5-difluoro-1-oxooctahydropyrrolo[1,2-c]pyrimidin-6-yl}cyclopropanesulfonamide]"
20,110,"CNS(=O)(=O)N[C@@H]1Cn2c(cn(-c3noc4cc(C)nc(-c5c(F)cc(F)cc5F)c34)c2=O)C1(F)F [Example 257, N-{(6R)-7,7-difluoro-2-[6-methyl-4-(2,4,6-trifluorophenyl)[1,2]oxazolo[4,5-c]pyridin-3-yl]-3-oxo-2,5,6,7-tetrahydro-3H-pyrrolo[1,2-c]imidazol-6-yl}-N′-methylsulfuric diamide]"
21,100,"Cc1cc(-c2c(F)cc(F)cc2F)c2c(N3CC[C@H]4N(C[C@@H](NS(C)(=O)=O)C4(F)F)C3=O)noc2n1 [Example 258, N-{(4aR,6R)-5,5-difluoro-2-[6-methyl-4-(2,4,6-trifluorophenyl)[1,2]oxazolo[5,4-b]pyridin-3-yl]-1-oxooctahydropyrrolo[1,2-c]pyrimidin-6-yl}methanesulfonamide]"
22,96,"CS(=O)(=O)N[C@@H]1CN2C(=O)N(c3noc4cc(Cl)cc(-c5c(F)cccc5F)c34)CC[C@@H]2C1(F)F [Example 259, N-{(4aR,6R)-2-[6-chloro-4-(2,6-difluorophenyl)-1,2-benzoxazol-3-yl]-5,5-difluoro-1-oxooctahydropyrrolo[1,2-c]pyrimidin-6-yl}methanesulfonamide]"
23,108,"CCS(=O)(=O)N[C@@H]1CN2C(=O)N(c3noc4cccc(-c5c(F)cc(F)cc5F)c34)CC[C@@H]2C1(F)F [Example 260, N-{(4aR,6R)-5,5-difluoro-1-oxo-2-[4-(2,4,6-trifluorophenyl)-1,2-benzoxazol-3-yl]octahydropyrrolo[1,2-c]pyrimidin-6-yl}ethanesulfonamide]"
